Data as given in patent US8003779B2, “Compositions and methods for studying and treating inflammatory diseases and disorders” (University of Rochester, priority 2005, dated 2011).

Key:
293HGLVP/CrePr cells = assay: RU486-induced CrePr activation of IL-1βXAT in 293HGLVP/CrePr cells; assay type: cell-based
Protocol: The IL-1β^XAT gene was transiently transfected into 293HGLVP/CrePr cells and the expression of IL-1β and lacZ were evaluated following RU486 (10^-7 M) administration.
IL-1β expression was assessed at the mRNA level by reverse transcriptase PCR (RT-PCR), and lacZ expression was evaluated by X-gal histochemistry.

mice = assay type: in vivo; conditions: perinatal systemic administration
[1] = literature (Loddick and Rothwell 1996; Yamasaki et al. 1995); cited from earlier work
[2] = system: primary rat endothelial cells; assay: IL-1β regulation of inflammation-related genes in primary rat endothelial cells (mRNA, zymography); assay type: cell-based; conditions: murine IL-1β 10 ng/mL, over 72 hours
Protocol: The effects of IL-1β were evaluated in vitro utilizing primary rat endothelial cell cultures as a representative rodent cell type. In this experiment, murine IL-1β (10 ng/mL) was administered to cultured primary cells, and subsequently examined for the regulation of several inflammation-related genes at the transcript level over the course of 72 hours. These molecules include (A) the inducible isoform of cyclooxygenase (COX-2), intercellular adhesion molecule-1 (ICAM-1) and monocyte chemoattractant protein-1 (MCP-1), as well as (B) the collagenase-A (MMP-2) and -B (MMP-9). Panel (C) depicts enzyme activity levels of MMP-2 and MMP-9 as evaluated by zymography.
Moreover, a plethora of inflammation-related genes are in turn induced by IL-1β, leading to exacerbation of the inflammatory response. IL-1βregulates down-stream inflammatory genes, including the inducible isoform of cyclooxygenase (COX-2) and the intercellular adhesion molecule-1 (ICAM-1), the monocyte chemoattractant protein-1 (MCP-1), as well as collagenases A (MMP-2) and B (MMP-9). ICAM-1 and MCP-1 are molecules associated with the recruitment of circulating immune cells at the site of injury (i.e. neutrophils and monocytes, respectively), whereas MMP-2 and MMP-9 are collagenases associated with tissue destruction during arthritis and injury. Primary rat endothelial cells were employed as a representative rodent model to investigate the effects of IL-1β on the regulation of ICAM-1, MCP-1, MMP-2 and MMP-9 at the transcriptional level (mRNA) as well as the enzyme activity level (zymography). FIG. 5 summarizes the regulation of these genes over time.

CC#C[C@]1(O)CC[C@H]2[C@@H]3CCC4=CC(=O)CCC4=C3[C@@H](c3ccc(N(C)C)cc3)C[C@@]21C [RU486, mifepristone]
secreted IL-1β protein in supernatant media (ELISA) (293HGLVP/CrePr cells; RU486 10^-7 M): significantly higher levels
IL-1β and lacZ mRNA (RT-PCR) (293HGLVP/CrePr cells; RU486 10^-7 M, IL-1βXAT-transfected cells): up-regulation
number of X-gal positive cells (293HGLVP/CrePr cells; RU486 in culture media): significant increase

FIV(lacZ): FIV vector carrying the reporter gene lacZ, construct 12750 bp
duration of stable lacZ reporter expression (mice): over 3 months

IL-1ra: IL-1 receptor antagonist, competes for receptor binding
tissue damage / injury in stroke models [1]: significantly attenuates tissue injury

B1: IL-1β: pro-inflammatory cytokine; murine IL-1β (10 ng/mL) in FIG. 5 (protein, UniProt P10749 118-269, looked up)
Interleukin-1 beta: VPIRQLHYRLRDEQQKSLVLSDPYELKALHLNGQNINQQVIFSMSFVQGEPSNDKIPVALGLKGKNLYLSCVMKDGTPTLQLESVDPKQYPKKKMEKRFVFNKIEVKSKVEFESAEFPNWYISTSQAEHKPVFLGNNSGQDIIDFTMESVSS
MMP-2 enzyme activity (zymography) [2]: increased with time
MMP-2 mRNA levels [2]: not altered
synthesis of COX-2, MCP-1, ICAM-1 and MMP-9 [2]: upregulated
tissue damage / injury in stroke models [1]: exacerbates damage
